This passage reports DC50 and Dmax results from patent US12427144B2, “Compounds and methods for the targeted degradation of androgen receptor” (Arvinas Operations, Inc., priority 2019, dated 2025).

A word on the DC50: it is the concentration at which degradation of the target reaches its halfway point. Higher therefore signals degradation only at high concentration. As a reminder, the Dmax is the greatest extent of degradation seen.

The assay concerns the target T1, Androgen Receptor (AR) (Homo sapiens, UniProt P10275).
T1 construct: endogenous in cells; host or cells: VCaP
T1 sequence (P10275 1-920): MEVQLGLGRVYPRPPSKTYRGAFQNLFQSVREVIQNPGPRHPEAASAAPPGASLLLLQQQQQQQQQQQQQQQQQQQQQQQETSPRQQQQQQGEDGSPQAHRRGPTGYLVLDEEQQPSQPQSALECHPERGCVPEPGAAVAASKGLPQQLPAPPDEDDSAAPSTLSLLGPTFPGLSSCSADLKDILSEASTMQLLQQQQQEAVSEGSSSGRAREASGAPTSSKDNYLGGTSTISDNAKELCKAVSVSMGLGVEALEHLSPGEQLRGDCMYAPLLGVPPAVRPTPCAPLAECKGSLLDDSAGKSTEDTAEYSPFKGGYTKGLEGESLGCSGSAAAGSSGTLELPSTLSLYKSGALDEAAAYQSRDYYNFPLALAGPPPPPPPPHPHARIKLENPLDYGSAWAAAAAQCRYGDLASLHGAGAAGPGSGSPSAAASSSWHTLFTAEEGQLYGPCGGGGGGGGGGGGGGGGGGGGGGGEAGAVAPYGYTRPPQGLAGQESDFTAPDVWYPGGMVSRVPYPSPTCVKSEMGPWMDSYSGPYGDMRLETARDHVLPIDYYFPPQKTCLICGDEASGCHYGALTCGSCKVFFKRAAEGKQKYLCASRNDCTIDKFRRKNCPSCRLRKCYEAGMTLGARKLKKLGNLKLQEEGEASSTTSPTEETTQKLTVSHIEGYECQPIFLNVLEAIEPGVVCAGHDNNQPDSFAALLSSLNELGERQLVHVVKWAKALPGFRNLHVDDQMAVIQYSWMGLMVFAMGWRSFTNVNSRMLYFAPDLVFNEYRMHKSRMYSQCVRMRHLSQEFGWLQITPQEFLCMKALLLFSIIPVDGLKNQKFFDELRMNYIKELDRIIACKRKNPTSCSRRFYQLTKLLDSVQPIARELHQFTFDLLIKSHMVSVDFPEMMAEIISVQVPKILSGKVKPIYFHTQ
Kind of assay: AR immunofluorescence staining, high content imager, VCaP cells. The format is cell-based. To be noted: for DC50: AR degradation by immunofluorescence; for Dmax: maximal AR degradation. On the procedure:
AR Immunofluorescence Staining of Cells for the High Content Imager was performed as follows: Following treatment of the cells with compound (using the central 60 wells of a 96-well plate), media was removed by aspiration, followed by addition of 50 μL per well of 4% paraformaldehyde (PFA) in PBS supplemented with 2 mM MgCl2 and 2 mM CaCl2. Fixed cells were incubated at RT for 15 minutes. For particularly low adherence cell lines (e.g., VCaP), a 2× solution of 8% PFA was added directly to wells instead. Cells were washed once with 200 μL PBS/well. To permeabilize cells 50 μL/well of 0.1% Triton X-100 in PBS was added and incubated for 5 minutes. Cells were washed once with 200 μL PBSS/well. 100 μL/well of Licor Odyssey Blocking Buffer was added for 1 hour at 20° C. Wells were aspirated and AR antibody (1:1000 in Licor Odyssey blocking buffer; 50 μL/well; CST 5153s) was added. Plates were incubated overnight at 4° C. Plates were washed 3 times with 200 EL PBS/well. The appropriate secondary antibody was added (50 μL/well; diluted in Licor Odyssey blocking buffer) and incubated for 1 hour at RT in the dark as prepared below using Anti-rabbit FITC (1:5000; […]) and Phalloidin-Alexafluor 648 (1:500; […]). Cells were washed once with 200 μL PBS/well. 50 μL DAPI or Hoechst 33342 diluted 1:1000 in Licor Odyssey blocking buffer was added to the wells. Cells were washed 3 times with 200 μL PBS/well. The plates were covered with a clear plastic sealer and refrigerated in the dark until ready to analyze. The cells were analyzed using a Molecular Devices IXM high content imager and analyzed using Molecular Devices metaXpress software suite.

Molecule `Cc1cc(O[C@H]2C(C)(C)[C@H](NC(=O)c3ccc(N4CCC(CC5CCN(C67CC(C(=O)NC8CCC(=O)NC8=O)(C6)C7)CC5)CC4)cc3)C2(C)C)cc(C)c1C#N` (mixture of isomers) [Compound 70, rac-N-(2,6-dioxopiperidin-3-yl)-3-(4-{[1-(4-{[(1r,3r)-3-(4-cyano-3,5-dimethylphenoxy)-2,2,4,4-tetramethylcyclobutyl]carbamoyl}phenyl)piperidin-4-yl]methyl}piperidin-1-yl)bicyclo[1.1.1]pentane-1-carboxamide] came in with a DC50 below 1 nM and a Dmax below 50%.
In the same order, the values of `Cc1cc(O[C@H]2C(C)(C)[C@H](NC(=O)c3ccc(N4CCO[C@H](CN5CCN(c6ccc(C(=O)N[C@@H]7CCC(=O)NC7=O)c(F)c6)CC5)C4)cc3)C2(C)C)cc(C)c1C#N` (single isomer, unassigned) [Compound 49] are below 1 nM and at least 70%.
In the same order, the values of `COc1cc(O[C@H]2C(C)(C)[C@H](NC(=O)c3ccc(N4CCC(CN5CCN(c6ccc(C(=O)NC7CCC(=O)NC7=O)c(F)c6)CC5)CC4)cc3)C2(C)C)ccc1C#N` (stereo partly drawn) [Compound 1, 4-(4-((1-(4-(((1R,3R)-3-(4-cyano-3-methoxyphenoxy)-2,2,4,4-tetramethylcyclobutyl)carbamoyl)phenyl)piperidin-4-yl)methyl)piperazin-1-yl)-N-(2,6-dioxopiperidin-3-yl)-2-fluorobenzamide] are below 1 nM and at least 70%.
With `COc1cc(O[C@H]2C(C)(C)[C@H](NC(=O)c3ccc(N4CCC(CN5CCN(c6ccc(C(=O)N[C@@H]7CCC(=O)NC7=O)c(F)c6)CC5)CC4)cc3)C2(C)C)ccc1C#N` [Compound 14, 4-(4-((1-(4-(((1R,3R)-3-(4-cyano-3-methoxyphenoxy)-2,2,4,4-tetramethylcyclobutyl)carbamoyl)phenyl)piperidin-4-yl)methyl)piperazin-1-yl)-N—((R)-2,6-dioxopiperidin-3-yl)-2-fluorobenzamide], the DC50 was in the range of 1 to 10 nM and the Dmax is below 50%.
`CC1(C)[C@H](NC(=O)c2ccc(N3CCC(CN4CCN(c5ccc(C(=O)NC6CCC(=O)NC6=O)c(F)c5)CC4)CC3)nn2)C(C)(C)[C@H]1Oc1ccc(C#N)c(Cl)c1` (stereo partly drawn) [Compound 17, N-((1R,3R)-3-(3-chloro-4-cyanophenoxy)-2,2,4,4-tetramethylcyclobutyl)-6-(4-((4-(4-((2,6-dioxopiperidin-3-yl)carbamoyl)-3-fluorophenyl)piperazin-1-yl)methyl)piperidin-1-yl)pyridazine-3-carboxamide]: the DC50 is below 1 nM and the greatest degradation seen (Dmax) lay in the range of 50 to 70%.
On the same counts, the results for `CC1(C)[C@H](NC(=O)c2cnc(N3CCC(CN4CCN(c5ccc(C(=O)NC6CCC(=O)NC6=O)c(F)c5)CC4)CC3)cn2)C(C)(C)[C@H]1Oc1ccc(C#N)c(Cl)c1` (stereo partly drawn) [Compound 18, N-((1R,3R)-3-(3-chloro-4-cyanophenoxy)-2,2,4,4-tetramethylcyclobutyl)-5-(4-((4-(4-((2,6-dioxopiperidin-3-yl)carbamoyl)-3-fluorophenyl)piperazin-1-yl)methyl)piperidin-1-yl)pyrazine-2-carboxamide] are 1 to 10 nM and 50 to 70%.
In the same order, the values of `CC1(C)[C@H](NC(=O)c2ccc(N3CCC(CN4CCN(c5ccc(C(=O)NC6CCC(=O)NC6=O)c(F)c5)CC4)CC3)cc2)C(C)(C)[C@H]1Oc1ccc(C#N)c(Cl)c1` (stereo partly drawn) [Compound 19, 4-(4-((1-(4-(((1R,3R)-3-(3-chloro-4-cyanophenoxy)-2,2,4,4-tetramethylcyclobutyl)carbamoyl)phenyl)piperidin-4-yl)methyl)piperazin-1-yl)-N-(2,6-dioxopiperidin-3-yl)-2-fluorobenzamide] are below 1 nM and at least 70%.
`Cc1cc(O[C@H]2C(C)(C)[C@H](NC(=O)c3ccc(N4CCC(CN5CCN(c6ccc(C(=O)NC7CCC(=O)NC7=O)c(F)c6)CC5)CC4)cc3)C2(C)C)cc(C)c1C#N` (stereo partly drawn) [Compound 20, 4-(4-((1-(4-(((1R,3R)-3-(4-cyano-3,5-dimethylphenoxy)-2,2,4,4-tetramethylcyclobutyl)carbamoyl)phenyl)piperidin-4-yl)methyl)piperazin-1-yl)-N-(2,6-dioxopiperidin-3-yl)-2-fluorobenzamide] came in with a 50% degradation concentration (DC50) below 1 nM and a Dmax of at least 70%.
With `COc1cc(O[C@H]2C(C)(C)[C@H](NC(=O)c3ccc(N4CCC(CN5CCN(c6ccc(C(=O)N[C@H]7CCC(=O)NC7=O)c(F)c6)CC5)CC4)cc3)C2(C)C)ccc1C#N` [Compound 21, 4-(4-((1-(4-(((1R,3R)-3-(4-cyano-3-methoxyphenoxy)-2,2,4,4-tetramethylcyclobutyl)carbamoyl)phenyl)piperidin-4-yl)methyl)piperazin-1-yl)-N—((S)-2,6-dioxopiperidin-3-yl)-2-fluorobenzamide], the half-maximal degradation concentration (DC50) is below 1 nM and the maximal degradation (Dmax) is at least 70%.
In the same order, the values of `N#Cc1ccc(O[C@H]2CC[C@H](NC(=O)c3ccc(N4CCC(CN5CCN(c6ccc(C(=O)NC7CCC(=O)NC7=O)nc6)CC5)CC4)nn3)CC2)cc1Cl` (stereo partly drawn) [Compound 22, N-((1R,4R)-4-(3-chloro-4-cyanophenoxy)cyclohexyl)-6-(4-((4-(6-((2,6-dioxopiperidin-3-yl)carbamoyl)pyridin-3-yl)piperazin-1-yl)methyl)piperidin-1-yl)pyridazine-3-carboxamide] are below 1 nM and at least 70%.
Consider `N#Cc1ccc(O[C@H]2CC[C@H](NC(=O)c3ccc(N4CCC(CN5CCN(c6ccc(C(=O)NC7CCC(=O)NC7=O)cc6)CC5)CC4)nn3)CC2)cc1Cl` (stereo partly shown) [Compound 23, N-[4-(3-chloro-4-cyano-phenoxy)cyclohexyl]-6-[4-[[4-[4-[(2,6-dioxo-3-piperidyl)carbamoyl]phenyl]piperazin-1-yl]methyl]-1-piperidyl]pyridazine-3-carboxamide], for which the DC50 was below 1 nM and the greatest degradation seen (Dmax) was at least 70%.
On the same counts, the results for `CC(C)N(CC1CCN(c2cnc(C(=O)N[C@H]3CC[C@H](Oc4ccc(C#N)c(Cl)c4)CC3)cn2)CC1)[C@H]1C[C@H](Oc2ccc(C(=O)NC3CCC(=O)NC3=O)nc2)C1` (stereo partly shown) [Compound 24, N-[4-(3-chloro-4-cyano-phenoxy)cyclohexyl]-5-[4-[[[3-[[6-[(2,6-dioxo-3-piperidyl)carbamoyl]-3-pyridyl]oxy]cyclobutyl]-isopropyl-amino]methyl]-1-piperidyl]pyrazine-2-carboxamide] are below 1 nM and at least 70%.
In the same order, the values of `CC(C)N(CC1CCN(c2cnc(C(=O)N[C@H]3CC[C@H](Oc4ccc(C#N)c(Cl)c4)CC3)cn2)CC1)[C@H]1C[C@H](Oc2ccc(C(=O)NC3CCC(=O)NC3=O)c(F)c2)C1` (stereo partly drawn) [Compound 25, N-((1R,4R)-4-(3-chloro-4-cyanophenoxy)cyclohexyl)-5-(4-((((1R,3R)-3-(4-((2,6-dioxopiperidin-3-yl)carbamoyl)-3-fluorophenoxy)cyclobutyl)(isopropyl)amino)methyl)piperidin-1-yl)pyrazine-2-carboxamide] are below 1 nM and 50 to 70%.
In the same order, the values of `N#Cc1ccc(O[C@H]2CC[C@H](NC(=O)c3ccc(N4CCC(CN5CCN(c6ccc(C(=O)NC7CCC(=O)NC7=O)c(F)c6)CC5)CC4)nn3)CC2)cc1Cl` (stereo partly drawn) [Compound 26, N-((1R,4R)-4-(3-chloro-4-cyanophenoxy)cyclohexyl)-6-(4-((4-(4-((2,6-dioxopiperidin-3-yl)carbamoyl)-3-fluorophenyl)piperazin-1-yl)methyl)piperidin-1-yl)pyridazine-3-carboxamide] are below 1 nM and at least 70%.
